Assay results from ChEMBL document CHEMBL1139080, “3-Mercaptopropionic acids as efficacious inhibitors of activated thrombin activatable fibrinolysis inhibitor (TAFIa)” (Bioorg Med Chem Lett, 2007).

Legend:
[1] = biological target: T1, Carboxypeptidase N catalytic chain (Homo sapiens, UniProt P15169); assay: Inhibition of human carboxypeptidase N
T1 sequence (P15169 whole entry): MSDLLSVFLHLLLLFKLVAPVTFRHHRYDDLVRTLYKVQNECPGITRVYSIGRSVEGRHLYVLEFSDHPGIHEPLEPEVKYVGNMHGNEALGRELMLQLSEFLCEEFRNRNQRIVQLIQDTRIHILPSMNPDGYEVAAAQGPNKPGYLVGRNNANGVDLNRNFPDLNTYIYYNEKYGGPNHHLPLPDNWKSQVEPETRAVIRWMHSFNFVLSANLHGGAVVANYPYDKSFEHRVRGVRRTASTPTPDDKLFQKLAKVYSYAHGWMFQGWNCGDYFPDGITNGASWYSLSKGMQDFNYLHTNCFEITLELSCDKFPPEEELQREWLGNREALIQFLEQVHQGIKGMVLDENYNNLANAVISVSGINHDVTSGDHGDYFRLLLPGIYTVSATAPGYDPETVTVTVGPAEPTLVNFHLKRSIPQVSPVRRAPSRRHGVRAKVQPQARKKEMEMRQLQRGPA

Carboxypeptidase B = biological target: T2, Carboxypeptidase B (Sus scrofa, UniProt P09955); assay: Inhibition of porcine pancreatic carboxypeptidase B
T2 sequence (P09955 whole entry): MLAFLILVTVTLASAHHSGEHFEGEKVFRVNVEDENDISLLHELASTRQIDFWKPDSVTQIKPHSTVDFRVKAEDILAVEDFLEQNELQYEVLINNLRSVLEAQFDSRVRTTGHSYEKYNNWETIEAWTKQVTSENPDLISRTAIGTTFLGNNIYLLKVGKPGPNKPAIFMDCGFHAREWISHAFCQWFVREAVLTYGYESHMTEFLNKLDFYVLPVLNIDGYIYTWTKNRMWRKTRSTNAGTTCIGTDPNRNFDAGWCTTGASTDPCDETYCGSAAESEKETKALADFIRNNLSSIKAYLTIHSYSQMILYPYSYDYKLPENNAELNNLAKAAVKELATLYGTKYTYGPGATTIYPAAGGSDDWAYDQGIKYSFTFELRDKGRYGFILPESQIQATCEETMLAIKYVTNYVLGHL

Carboxypeptidase B2 = biological target: T3, Carboxypeptidase B2 (Homo sapiens, UniProt Q96IY4); assay: Inhibition of human activated thrombin activatable fibrinolysis inhibitor
T3 sequence (Q96IY4 whole entry): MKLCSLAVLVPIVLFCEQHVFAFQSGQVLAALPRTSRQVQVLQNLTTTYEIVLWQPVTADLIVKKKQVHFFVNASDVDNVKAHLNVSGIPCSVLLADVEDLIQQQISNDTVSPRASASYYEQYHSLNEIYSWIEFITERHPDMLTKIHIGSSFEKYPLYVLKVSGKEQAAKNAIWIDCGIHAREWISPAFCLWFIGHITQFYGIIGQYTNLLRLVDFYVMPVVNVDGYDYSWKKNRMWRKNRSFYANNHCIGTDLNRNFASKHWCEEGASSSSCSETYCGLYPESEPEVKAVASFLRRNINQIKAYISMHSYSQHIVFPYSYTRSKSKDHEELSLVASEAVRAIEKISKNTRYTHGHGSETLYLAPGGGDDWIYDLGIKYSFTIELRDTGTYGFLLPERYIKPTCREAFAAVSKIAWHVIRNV

Plasma = assay: Inhibition of activated thrombin activatable fibrinolysis inhibitor in human plasma assessed as acceleration of clot lysis time; format: functional, cell-free

| Structure (SMILES) | IC50 [1] | IC50 (Carboxypeptidase B) | IC50 (Carboxypeptidase B2) | Activity (Plasma) |
| --- | --- | --- | --- | --- |
| N=C(N)N1CCC(C(CS)C(=O)O)CC1 (stereo not given) | 3.1 µM | 0.045 µM | 1.07 µM |  |
| CC(=N)N1CCC(C(CS)C(=O)O)CC1 (stereo not given) | 29 µM | 1.04 µM | 5.3 µM |  |
| NCC(=O)N1CCC(C(CS)C(=O)O)CC1 (stereo not given) | 4.95 µM | > 30 µM | 7.35 µM |  |
| N=C(N)Nc1ccc(Cl)c(C(CS)C(=O)O)c1 (stereo not given) | 4.65 µM | 4.65 µM | 0.011 µM |  |
| N=C(N)c1ccc(C(CS)C(=O)O)cc1 (stereo not given) | 1 µM | 0.845 µM | 0.905 µM |  |
| N=C(N)Nc1cccc(C(CS)C(=O)O)c1 (racemic) [listing 2 of 2 here] |  |  |  | Dose-dependent effect |
| O=C(O)C(CS)C1CCCNC1 (stereo in doubt; 1c) | > 30 µM | > 30 µM | 0.068 µM |  |
| O=C(O)C(CS)C1CCCNC1 (stereo in doubt; 1e) | 1.75 µM | 19 µM | 0.445 µM |  |
| O=C(O)C(CS)CC1CCCNC1 (stereo in doubt; 3a) | 0.42 µM | 4.15 µM | 0.092 µM |  |
| O=C(O)C(CS)CC1CCCNC1 (stereo in doubt; 3b) | > 30 µM | 1.95 µM | 0.129 µM |  |
| N=C(N)Nc1cccc(C(CS)C(=O)O)c1 (stereo in doubt; (-)2a) | 1.72 µM | 1.72 µM | 0.003 µM |  |

The remaining molecules from weak to strong by IC50 [1], led by results:

| IC50 [1] | IC50 (Carboxypeptidase B) | IC50 (Carboxypeptidase B2) | Structure (SMILES) | Activity (Plasma) |
| --- | --- | --- | --- | --- |
| 0.357 µM | > 30 µM | 0.785 µM | Nc1cccc(C(CS)C(=O)O)c1 (stereo not given) |  |
| 0.061 µM | 0.029 µM | 0.139 µM | O=C(O)C(CS)CC1CCNCC1 (stereo not given) |  |
| 0.06 µM | 0.195 µM | 0.037 µM | O=C(O)C(CS)C1CCNCC1 (stereo not given) |  |
| 0.058 µM | 0.003 µM | 0.165 µM | N=C(N)N1CCCC(C(CS)C(=O)O)C1 (stereo in doubt; 1d) |  |
| 0.038 µM | 0.038 µM | 0.045 µM | N=C(N)N1CCCC(C(CS)C(=O)O)C1 (stereo in doubt; 1b) |  |
| 0.008 µM | 0.036 µM | 0.005 µM | N=C(N)Nc1cccc(C(CS)C(=O)O)c1 (single isomer, unassigned; (+)) |  |
| 0.003 µM | 0.137 µM | 0.004 µM | N=C(N)Nc1cccc(C(CS)C(=O)O)c1 (racemic) [listing 1 of 2 here] |  |
| 0.002 µM | 0.01 µM | 0.008 µM | NC(N)=NCCCC(CS)C(=O)O (stereo not given) |  |
